Patent US20100233086A1, “COMPOUNDS FOR USE IN IMAGING, DIAGNOSING AND/OR TREATMENT OF DISEASES OF THE CENTRAL NERVOUS SYSTEM OR OF TUMORS” (priority 2007, published 2010)
Entries after “also recorded” stand apart in the source; their conditions may differ.

What was measured:
[1] = Biodistribution in NMRI mice (gamma counter); type: in vivo; settings: 0.178 MBq injected, decay corrected
Description: For each time point 3 mice have been used. The mice were injected each with 0.178 MBq[^18F]compound 13. After the respective time points the mice were sacrificed, the organs taken out and measured in a gamma counter. The results were decay corrected.

MAO B = target: T1, MAO B (Homo sapiens, UniProt P27338); test: Autoradiography of [^18F]compound 13 on human brain sections (Alzheimer's disease), blocking with MAO B inhibitors; type: binding
T1 construct: investigated on human brain sections from patients with Alzheimer's disease and normal controls; from tissue; host or cells: human brain sections (Alzheimer's disease patients and normal controls)
T1 sequence (P27338 1-520): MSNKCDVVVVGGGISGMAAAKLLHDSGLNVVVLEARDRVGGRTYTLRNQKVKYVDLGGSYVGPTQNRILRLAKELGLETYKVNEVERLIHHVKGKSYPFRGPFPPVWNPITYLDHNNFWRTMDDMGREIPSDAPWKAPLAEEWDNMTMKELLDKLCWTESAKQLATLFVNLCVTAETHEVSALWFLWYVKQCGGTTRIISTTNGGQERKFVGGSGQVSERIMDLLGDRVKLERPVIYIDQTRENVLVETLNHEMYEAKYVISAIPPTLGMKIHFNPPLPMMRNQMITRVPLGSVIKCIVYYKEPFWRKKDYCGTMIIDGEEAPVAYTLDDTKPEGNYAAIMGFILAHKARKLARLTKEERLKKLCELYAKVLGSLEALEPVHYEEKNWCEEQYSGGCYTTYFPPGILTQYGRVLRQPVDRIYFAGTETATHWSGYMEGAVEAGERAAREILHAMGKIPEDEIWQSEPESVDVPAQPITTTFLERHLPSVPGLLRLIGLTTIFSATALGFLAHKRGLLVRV
Description: Thereafter, the slides were removed and brought to room temperature. […] The sections were dipped two times into ice cold distilled water, dried at room temperature and exposed to PhosphorImanger plates (FUJI BAS 5000) over night. For detection of the specificity of the signals an excess (10 μM) of Deprenyl, Pargylin (both for MAO B) and Clorgyline (for MAO A), respectively, was used. After exposure, the sections were immunohistochemically stained using a standard protocol with an anti-GFAP antibody to detect reactive astrocytes. Amyloid B plaques were detected with BAY 949172 (Rowe CC et al. Lancet Neutol 2008; 7: 129-135) using the binding protocol as described above.

[2] = PET brain uptake (time activity curves, SUV) in cynomolgus monkey; settings: same monkey
[3] = Plasma radioactivity and plasma metabolites in cynomolgus monkey; type: in vivo
Text: Plasma radioactivity profiles have been monitored over time. […] In addition, metabolites occurring in plasma over time have been monitored (FIGS. 8 and 9) for both ligands.

[4] = reported in the literature; cited from earlier work

Question: With `C#CCN(C)[C@H](C[18F])Cc1ccccc1` [[^18F]compound 13, N-[(2S)-1-(^18F)fluoro-3-phenylpropan-2-yl]-N-methylprop-2-yn-1-amine] as the compound, how does the “brain uptake of radioactivity” value ([1]; 2 min p.i.) read?
Answer: 7.5 ± 0.04 % ID/g

Question: What about the radioactivity in brain ([1]; 30 min p.i.) of the same compound?
Answer: 2.10±0.33 % ID/g

Question: What about the radioactivity in brain ([1]; after 4 hours) of the same compound?
Answer: 1.34±0.26 % ID/g

Question: What about the “relation of autoradiographic signal density and intensity to amyloid β pathology” value (MAO B; Alzheimer's disease brain slices, amyloid detected with BAY 949172) of the same compound?
Answer: corresponds with the amyloid β plaque load

Question: And the “autoradiographic signal blocked with deprenyl” value (MAO B; human Alzheimer's disease brain slices, 10 Bq/μl tracer, excess (10 μM) of Deprenyl)?
Answer: could be blocked; also recorded: completely blocked

Question: What about the “autoradiographic signal blocked with pargylin” value (MAO B; human Alzheimer's disease brain slices, 10 Bq/μl tracer, excess (10 μM) of Pargylin) of the same compound?
Answer: could be blocked

Question: And the “relation of autoradiographic signal to reactive astrocytes (GFAP immunoreactivity)” value (MAO B; human brain slice from a patient with AD, anti-GFAP staining)?
Answer: correspondence of the autoradiographic signal to reactive astrocytes is demonstrated

Question: What about the “uptake and enrichment in specific regions, e.g. striatum, higher than [^11C]Deprenyl” value [2] of the same compound?
Answer: about 10%

Question: What about the “metabolic stability compared to [^11C]Deprenyl (and compound 5)” value ([3]; plasma metabolites) of the same compound?
Answer: improved metabolic stability; also recorded: more stable

Question: What about the “generation of metabolite b in plasma (level)” value ([3]; plasma over time) of the same compound?
Answer: around 10%

Question: With `C#CCN(C)CCCCCC[18F]` [compound 5] as the compound, how does the degradation to metabolite [4] read?
Answer: degraded quickly towards a polar [^18F]-labelled metabolite
